Where two headings read alike, the source gives them in different places.
Columns and labels:
[1] = tested on: hT2R65; assay: hT2R panel inhibition, transient HEK293 G16g44, agonist Oleuropein 1 mM; assay type: cell-based, human; conditions: compound at 25 μM; receptor activated to EC80 with the corresponding agonist
Method in brief: (§1)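 The test compound's selectivity was profiled by challenging each transiently expressed human T2R with its activating bitter ligand at an EC80 concentration, inhibition being the reduction of receptor signalling it produced.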

[2] = tested on: hT2R44; assay: hT2R panel inhibition, transient HEK293 G16g44, agonist Denatonium 0.5 μM; assay type: cell-based, human; conditions: compound at 25 μM; receptor activated to EC80 with the corresponding agonist
Method in brief: as §1

[3] = tested on: hT2R55; assay: hT2R panel inhibition, transient HEK293 G16g44, agonist Cinchonine 150 μM; assay type: cell-based, human; conditions: compound at 25 μM; receptor activated to EC80 with the corresponding agonist
Method in brief: as §1

[4] = target: hT2R16 (Homo sapiens (Human), UniProt Q9NYV7); assay: hT2R panel inhibition, transient HEK293 G16g44, agonist Salicin 1 mM; assay type: cell-based; conditions: HEK293, compound at 25 μM; receptor activated to EC80 with the corresponding agonist; read-out: screening result against bitter receptor 16
Method in brief: as §1

[5] = target: hT2R71 (Homo sapiens (Human), UniProt P59536); assay: hT2R panel inhibition, transient HEK293 G16g44, agonist Picric Acid 10 μM; assay type: cell-based; conditions: HEK293, compound at 25 μM; receptor activated to EC80 with the corresponding agonist; read-out: screening result against bitter receptor 71
Method in brief: as §1

[6] = target: hT2R61 (Homo sapiens (Human), UniProt P59537); assay: hT2R panel inhibition, transient HEK293 G16g44, agonist Aristolochic Acid 25 nM; assay type: cell-based; conditions: HEK293, compound at 25 μM; receptor activated to EC80 with the corresponding agonist; read-out: screening result against bitter receptor 61
Method in brief: as §1

[7] = target: T1, hT2R14 (Homo sapiens (Human), UniProt Q9NYV8); assay: hT2R panel inhibition, transient HEK293 G16g44, agonist Aristolochic Acid 2 μM; assay type: cell-based; conditions: HEK293, compound at 25 μM; receptor activated to EC80 with the corresponding agonist; read-out: screening result against bitter receptor 14
Method in brief: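 Each hT2R was transiently transfected into HEK293 cells stably expressing G16g44 and assayed functionally for inhibition of agonist response. Agonists were applied at EC80: andrographolide at 0.5 mM for hT2R8 and aristolochic acid at 2 μM for hT2R14.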

[8] = target: hT2R3 (Homo sapiens (Human), UniProt Q9NYW6); assay: hT2R panel inhibition, transient HEK293 G16g44, agonist Chloroquine pH6.5 50 μM; assay type: cell-based; conditions: HEK293, compound at 25 μM; receptor activated to EC80 with the corresponding agonist; read-out: screening result against bitter receptor 3
Method in brief: as §1

[9] = target: hT2R75 (Homo sapiens (Human), UniProt P59540); assay: hT2R panel inhibition, transient HEK293 G16g44, agonist Strychnine 1 μM; assay type: cell-based; conditions: HEK293, read-out: screening result against bitter receptor 75, compound at 25 μM; receptor activated to EC80 with the corresponding agonist
[10] = target: hT2R7 (Homo sapiens (Human), UniProt Q9NYW3); assay: hT2R panel inhibition, transient HEK293 G16g44, agonist Chloroquine pH6.5 10 mM; assay type: cell-based; conditions: HEK293, compound at 25 μM; receptor activated to EC80 with the corresponding agonist; read-out: screening result against bitter receptor 7
Method in brief: as §1

[11] = target: T1, hT2R14; assay: hT2R14 antagonist high-throughput FLIPR assay, stable cell line with G16g44, agonist aristolochic acid; assay type: cell-based
Method in brief: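 HEK293 cells stably expressing hT2R14 with chimeric G16g44 were stimulated with aristolochic acid (3 μM), giving 70-80% of maximal receptor activity. Test compounds were added together with the agonist, and antagonism was read as fluorescent calcium signal on FLIPR.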

[12] = target: hT2R4 (Homo sapiens (Human), UniProt Q9NYW5); assay: hT2R panel inhibition, transient HEK293 G16g44, agonist Chloroquine pH6.5 5 mM; assay type: cell-based; conditions: HEK293, compound at 25 μM; receptor activated to EC80 with the corresponding agonist; class symbols; read-out: screening result against bitter receptor 4
Protocol: Specifically, in order to evaluate the inhibitory selectivity of the Compound C compound, this compound was tested against 22 human T2Rs which were deorphaned by Senomyx. These receptors and the bitter ligands that activate these human T2Rs are reported in earlier patent applications which are incorporated by reference herein. These 22 human T2Rs are hT2R1, 3, 4, 5, 7, 8, 9, 10, 13, 14, 16, 44, 51, 54, 55, 61, 63, 64, 65, 67, 71 and 75. The amino acid and nucleic acid sequences of all of these T2Rs may be found in these earlier patent applications. These human T2Rs were each individually transiently transfected into HEK293 cells that stably express the promiscuous G protein G16g44 and functional assays were effected using these receptors as disclosed in these same patent applications. […] The ligands were used at EC80 concentration levels. The list of bitter ligands utilized and the tested ligand concentrations are contained in Table 5 of this example.
Relating to the foregoing, FIG. 5 contains experimental results wherein Compound C was tested with different agonist compounds. The inhibition activity is represented by the reduction of receptor activity in the presence of Compound C. […] These 13 hT2Rs are hT2R3, 7, 10, 14, 16, 44, 51, 55, 61, 63, 64, 65, and 71.

[13] = tested on: hT2R54; assay: hT2R panel inhibition, transient HEK293 G16g44, agonist Ranitidine 5 mM; assay type: cell-based, human; conditions: compound at 25 μM; receptor activated to EC80 with the corresponding agonist
Method in brief: as §1

[14] = target: hT2R10 (Homo sapiens (Human), UniProt Q9NYW0); assay: hT2R panel inhibition, transient HEK293 G16g44, agonist Strychnine 50 μM; assay type: cell-based; conditions: HEK293, read-out: screening result against bitter receptor 10, compound at 25 μM; receptor activated to EC80 with the corresponding agonist
[15] = tested on: hT2R63; assay: hT2R panel inhibition, transient HEK293 G16g44, agonist Caffeine 1 mM or Andrographolide 100 μM; assay type: cell-based, human; conditions: compound at 25 μM; receptor activated to EC80 with the corresponding agonist
Method in brief: as §1

[16] = target: hT2R64 (Homo sapiens (Human), UniProt P59538); assay: hT2R panel inhibition, transient HEK293 G16g44, agonist Aristolochic Acid 1 μM; assay type: cell-based; conditions: HEK293, compound at 25 μM; receptor activated to EC80 with the corresponding agonist; read-out: screening result against bitter receptor 64
Method in brief: as §1

[17] = target: hT2R51 (Homo sapiens (Human), UniProt P59533); assay: hT2R panel inhibition, transient HEK293 G16g44, agonist Prop 2.5 μM; assay type: cell-based; conditions: HEK293, compound at 25 μM; receptor activated to EC80 with the corresponding agonist; read-out: screening result against bitter receptor 51
Method in brief: as §1

[18] = tested on: hT2R67; assay: hT2R panel inhibition, transient HEK293 G16g44, agonist Andrographolide 5 μM; assay type: cell-based, human; conditions: compound at 25 μM; receptor activated to EC80 with the corresponding agonist
Method in brief: as §1

[19] = target: hT2R5 (Homo sapiens (Human), UniProt Q9NYW4); assay: hT2R panel inhibition, transient HEK293 G16g44, agonist Picoline 10 mM; assay type: cell-based; conditions: HEK293, compound at 25 μM; receptor activated to EC80 with the corresponding agonist; read-out: screening result against bitter receptor 5
Method in brief: as §1

[20] = read-out: IC50 on hT2R14 bitter receptor

Chain of hT2R4 (Q9NYW5 whole entry): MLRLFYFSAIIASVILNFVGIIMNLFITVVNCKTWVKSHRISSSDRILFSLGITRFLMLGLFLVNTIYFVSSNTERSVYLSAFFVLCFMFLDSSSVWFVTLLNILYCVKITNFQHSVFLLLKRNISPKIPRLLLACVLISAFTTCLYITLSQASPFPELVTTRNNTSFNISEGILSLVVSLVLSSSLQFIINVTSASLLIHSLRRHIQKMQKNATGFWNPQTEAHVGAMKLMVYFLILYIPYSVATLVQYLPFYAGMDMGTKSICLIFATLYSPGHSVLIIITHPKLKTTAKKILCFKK
Chain of hT2R7 (Q9NYW3 whole entry): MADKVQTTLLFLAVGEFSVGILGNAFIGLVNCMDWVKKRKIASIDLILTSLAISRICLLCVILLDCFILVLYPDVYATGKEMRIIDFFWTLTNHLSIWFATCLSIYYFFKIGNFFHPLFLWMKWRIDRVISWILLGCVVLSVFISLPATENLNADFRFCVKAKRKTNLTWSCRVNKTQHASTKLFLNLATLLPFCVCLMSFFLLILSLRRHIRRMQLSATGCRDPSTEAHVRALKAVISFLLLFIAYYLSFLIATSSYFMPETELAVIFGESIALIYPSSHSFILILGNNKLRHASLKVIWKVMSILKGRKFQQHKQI
Chain of hT2R16 (Q9NYV7 whole entry): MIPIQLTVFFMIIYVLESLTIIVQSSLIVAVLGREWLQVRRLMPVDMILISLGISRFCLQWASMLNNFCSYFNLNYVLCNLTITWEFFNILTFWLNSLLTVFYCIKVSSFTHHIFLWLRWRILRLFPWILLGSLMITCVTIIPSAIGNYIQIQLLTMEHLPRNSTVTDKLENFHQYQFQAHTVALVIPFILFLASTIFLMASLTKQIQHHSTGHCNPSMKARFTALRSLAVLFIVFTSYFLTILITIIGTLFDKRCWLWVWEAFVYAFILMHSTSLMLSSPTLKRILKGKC
Chain of hT2R10 (Q9NYW0 whole entry): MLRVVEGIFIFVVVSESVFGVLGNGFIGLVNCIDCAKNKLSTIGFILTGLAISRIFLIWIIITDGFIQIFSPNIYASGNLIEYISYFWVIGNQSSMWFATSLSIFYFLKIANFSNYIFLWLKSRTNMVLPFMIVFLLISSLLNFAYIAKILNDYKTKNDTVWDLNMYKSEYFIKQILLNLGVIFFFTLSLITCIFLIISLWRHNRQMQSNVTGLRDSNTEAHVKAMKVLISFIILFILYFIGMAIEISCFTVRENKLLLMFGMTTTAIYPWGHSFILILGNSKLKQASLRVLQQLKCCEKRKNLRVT
T1 sequence (Q9NYV8 whole entry): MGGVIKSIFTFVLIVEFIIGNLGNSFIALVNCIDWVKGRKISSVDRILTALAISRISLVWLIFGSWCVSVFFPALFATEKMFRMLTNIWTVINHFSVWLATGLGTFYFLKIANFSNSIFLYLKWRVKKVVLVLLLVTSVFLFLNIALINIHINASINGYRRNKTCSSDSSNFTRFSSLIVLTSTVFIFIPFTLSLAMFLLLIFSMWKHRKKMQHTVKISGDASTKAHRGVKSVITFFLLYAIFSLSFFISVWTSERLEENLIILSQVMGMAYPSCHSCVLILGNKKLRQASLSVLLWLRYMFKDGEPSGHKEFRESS
Chain of hT2R51 (P59533 whole entry): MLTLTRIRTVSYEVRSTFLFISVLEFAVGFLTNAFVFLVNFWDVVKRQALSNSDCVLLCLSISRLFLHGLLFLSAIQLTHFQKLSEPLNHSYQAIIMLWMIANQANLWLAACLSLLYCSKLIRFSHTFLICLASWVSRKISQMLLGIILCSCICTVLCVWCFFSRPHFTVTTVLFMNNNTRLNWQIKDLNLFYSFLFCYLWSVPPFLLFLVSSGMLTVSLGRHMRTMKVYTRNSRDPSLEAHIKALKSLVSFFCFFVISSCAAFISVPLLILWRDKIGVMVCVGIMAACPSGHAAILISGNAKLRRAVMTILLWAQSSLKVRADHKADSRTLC
Chain of hT2R61 (P59537 whole entry): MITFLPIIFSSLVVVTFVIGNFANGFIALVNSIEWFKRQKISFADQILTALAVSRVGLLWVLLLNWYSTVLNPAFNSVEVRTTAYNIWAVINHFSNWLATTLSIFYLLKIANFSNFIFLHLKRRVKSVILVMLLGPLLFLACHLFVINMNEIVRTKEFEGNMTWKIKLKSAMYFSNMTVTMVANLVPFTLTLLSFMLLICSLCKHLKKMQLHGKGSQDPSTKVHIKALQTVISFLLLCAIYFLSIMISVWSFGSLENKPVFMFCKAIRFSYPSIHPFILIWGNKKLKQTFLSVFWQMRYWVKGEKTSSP
Chain of hT2R71 (P59536 whole entry): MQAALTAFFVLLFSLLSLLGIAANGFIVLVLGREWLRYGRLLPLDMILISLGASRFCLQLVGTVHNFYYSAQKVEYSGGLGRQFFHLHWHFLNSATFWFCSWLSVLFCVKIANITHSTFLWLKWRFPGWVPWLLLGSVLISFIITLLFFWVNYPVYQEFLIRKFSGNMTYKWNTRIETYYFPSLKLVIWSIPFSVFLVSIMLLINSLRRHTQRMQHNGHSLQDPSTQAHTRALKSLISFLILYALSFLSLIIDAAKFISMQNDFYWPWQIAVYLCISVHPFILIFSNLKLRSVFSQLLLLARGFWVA
Chain of hT2R75 (P59540 whole entry): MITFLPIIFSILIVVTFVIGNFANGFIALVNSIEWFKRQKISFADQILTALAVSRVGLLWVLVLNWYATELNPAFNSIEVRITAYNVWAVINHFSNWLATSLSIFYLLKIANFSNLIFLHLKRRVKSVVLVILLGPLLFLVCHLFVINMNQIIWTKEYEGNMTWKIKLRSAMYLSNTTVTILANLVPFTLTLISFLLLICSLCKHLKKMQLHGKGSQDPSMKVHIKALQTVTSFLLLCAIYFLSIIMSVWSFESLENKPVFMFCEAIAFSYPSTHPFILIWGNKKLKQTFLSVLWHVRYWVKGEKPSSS
Chain of hT2R3 (Q9NYW6 whole entry): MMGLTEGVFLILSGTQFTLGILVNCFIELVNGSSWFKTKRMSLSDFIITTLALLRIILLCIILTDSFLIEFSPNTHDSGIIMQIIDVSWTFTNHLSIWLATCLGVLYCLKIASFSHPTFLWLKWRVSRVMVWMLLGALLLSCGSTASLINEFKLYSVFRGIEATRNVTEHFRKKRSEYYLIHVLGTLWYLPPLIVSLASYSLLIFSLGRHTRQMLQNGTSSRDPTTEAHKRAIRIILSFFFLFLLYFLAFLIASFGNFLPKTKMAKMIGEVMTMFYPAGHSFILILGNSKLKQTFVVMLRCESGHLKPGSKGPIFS
Chain of hT2R64 (P59538 whole entry): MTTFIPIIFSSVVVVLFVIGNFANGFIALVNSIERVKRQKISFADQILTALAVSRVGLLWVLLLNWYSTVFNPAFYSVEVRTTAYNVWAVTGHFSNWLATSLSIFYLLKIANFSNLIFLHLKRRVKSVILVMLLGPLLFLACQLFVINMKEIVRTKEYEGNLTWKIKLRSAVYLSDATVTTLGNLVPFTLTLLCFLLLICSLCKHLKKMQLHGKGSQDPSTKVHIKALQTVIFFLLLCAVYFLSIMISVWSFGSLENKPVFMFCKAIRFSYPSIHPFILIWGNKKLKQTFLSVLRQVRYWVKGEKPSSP
Chain of hT2R5 (Q9NYW4 whole entry): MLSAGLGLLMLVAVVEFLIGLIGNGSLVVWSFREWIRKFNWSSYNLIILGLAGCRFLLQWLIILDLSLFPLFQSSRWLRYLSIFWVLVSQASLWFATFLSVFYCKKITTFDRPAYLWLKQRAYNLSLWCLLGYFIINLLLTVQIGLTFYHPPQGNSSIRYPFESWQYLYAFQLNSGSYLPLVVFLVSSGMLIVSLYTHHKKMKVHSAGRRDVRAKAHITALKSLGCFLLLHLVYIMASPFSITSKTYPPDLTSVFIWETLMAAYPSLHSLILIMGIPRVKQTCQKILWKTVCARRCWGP

SMILES	screening result against bitter receptor 65 [1]	screening result against bitter receptor 44 [2]	screening result against bitter receptor 55 [3]	inhibition at 25 µM [4] [%]	inhibition at 25 µM [5] [%]	inhibition at 25 µM [6] [%]	inhibition at 25 µM [7] [%]	inhibition at 25 µM [8] [%]	inhibition at 25 µM [9] [%]	inhibition at 25 µM [10] [%]	IC50 [11, 20] [µM]	inhibition at 25 µM [12] [%]	screening result against bitter receptor 54 [13]	inhibition at 25 µM [14] [%]	screening result against bitter receptor 63 [15]	inhibition at 25 µM [16] [%]	inhibition at 25 µM [17] [%]	screening result against bitter receptor 67 [18]	inhibition at 25 µM [19] [%]	IC50 ([11]; Table C, read-out: hT2R14 IC50) [µM]
CCCN(Cc1ccc(OC)cc1)S(=O)(=O)c1ccc(C(=O)O)cc1 [Example 5-17, 4-(N-(4-methoxybenzyl)-N-propylsulfamoyl)benzoic acid]	++ (40% to 60% inhibition = ++)	+++ (60% to 80% inhibition = +++)	++++ (80% or greater inhibition = ++++)	20 to 40	40 to 60	> 80	> 80	20 to 40	20 to 40	20 to 40	3.75	20 to 40	++ (40% to 60% inhibition = ++)							
CCCOc1ccc(CN(Cc2ccco2)S(=O)(=O)c2ccc(C(=O)O)cc2)cc1 [Example 5-8, 4-(N-(4-propoxybenzyl)-N-(furan-2-ylmethyl)sulfamoyl)benzoic acid]	++ (40% to 60% inhibition = ++)	++ (40% to 60% inhibition = ++)	++++ (80% or greater inhibition = ++++)	20 to 40	40 to 60	60 to 80	> 80	20 to 40	20 to 40		2.5	40 to 60	+ (20% to 40% inhibition = +)	40 to 60	++ (40% to 60% inhibition = ++)	> 80	40 to 60			
O=C(O)c1ccc(CN(Cc2ccc(F)cc2)S(=O)(=O)c2ccccc2)cc1 [Example 5-105, 4-((N-(4-fluorobenzyl)phenylsulfonamido)methyl)-benzoic acid]	+++ (60% to 80% inhibition = +++)	++ (40% to 60% inhibition = ++)	++++ (80% or greater inhibition = ++++)	40 to 60	60 to 80	> 80	> 80	20 to 40	20 to 40	20 to 40		20 to 40	+ (20% to 40% inhibition = +)	20 to 40	++ (40% to 60% inhibition = ++)	> 80		++ (40% to 60% inhibition = ++)	20 to 40	0.935
COc1ccccc1CN(Cc1ccco1)S(=O)(=O)c1ccc(C(=O)O)cc1 [Example 5-7, 4-(N-(furan-2-ylmethyl)-N-(2-methoxybenzyl)sulfamoyl)benzoic acid]		++ (40% to 60% inhibition = ++)	++++ (80% or greater inhibition = ++++)		40 to 60	> 80	40 to 60	20 to 40	20 to 40	20 to 40	12	20 to 40		20 to 40	++++ (80% or greater inhibition = ++++)	> 80		+ (20% to 40% inhibition = +)		
O=C(O)C1CCC(CN(Cc2ccc(F)cc2)S(=O)(=O)c2cccs2)CC1 (stereo not shown) [Example 5-51, 4-((N-(4-fluorobenzyl)thiophene-2-sulfonamido)methyl)cyclohexanecarboxylic acid]	+ (20% to 40% inhibition = +)	++ (40% to 60% inhibition = ++)	+++ (60% to 80% inhibition = +++)	20 to 40	40 to 60	> 80	> 80	40 to 60	20 to 40	20 to 40		20 to 40		20 to 40	+++ (60% to 80% inhibition = +++)	40 to 60				0.342
COc1cccc(CN(Cc2ccco2)S(=O)(=O)c2ccc(C(=O)O)cc2)c1 [Example 5-6, 4-(N-(furan-2-ylmethyl)-N-(3-methoxybenzyl)sulfamoyl)benzoic acid]	+ (20% to 40% inhibition = +)	++ (40% to 60% inhibition = ++)	++++ (80% or greater inhibition = ++++)	20 to 40	40 to 60	> 80	> 80	20 to 40	20 to 40	20 to 40	10	20 to 40	+ (20% to 40% inhibition = +)	40 to 60	++++ (80% or greater inhibition = ++++)	> 80	40 to 60			
COc1ccc(CN(Cc2ccc(C(=O)O)cc2)S(=O)(=O)c2ccccc2)cc1 [Example 5-102, 4-((N-(4-methoxybenzyl)phenylsulfonamido)methyl) benzoic acid]	++ (40% to 60% inhibition = ++)	+++ (60% to 80% inhibition = +++)	++++ (80% or greater inhibition = ++++)	20 to 40	60 to 80	> 80	> 80	40 to 60	20 to 40	40 to 60		40 to 60	+ (20% to 40% inhibition = +)	20 to 40	+ (20% to 40% inhibition = +)	60 to 80	20 to 40	+ (20% to 40% inhibition = +)	20 to 40	2.22

Reference: patent US9247759B2, “Identification of human T2R receptors that respond to bitter compounds that elicit the bitter taste in compositions, and the use thereof in assays to identify compounds that inhibit (block) bitter taste in compositions and use thereof” (SENOMYX, INC., priority 2007, dated 2016)
